# Tests used:
# [1] = Inhibition of beta3 tubulin overexpressed in human HeLa cells after 48 hrs by SRB assay
# [2] = Inhibition of p-gp overexpressed in human SKOV3/M6-6 isogenic cells after 48 hrs by sulforhodamine B assay
smiles,measurement,setting,value
COc1ccc(N(C)c2nc(C)nc3c2CC(C)C3)cc1 (stereo not given),IC50,[1],24 nM
same,IC50,[2],44 nM
COc1ccc(N(C)c2nc(C)nc3c2CCC3)cc1,IC50,[1],8.2 nM
same,IC50,[2],16 nM
COc1ccc(/C=C\c2cc(OC)c(OC)c(OC)c2)cc1O [combretastin A4],IC50,[2],6.6 nM
